The values that follow come from patent US8039513B2, “Cis-1,2-substituted stilbene derivatives and their use in preparation of drugs for treatment and/or prevention of diabetes” (Institute of Radiation Medicine, Academy of Military …, priority 2004, dated 2011).

Data set [1] relates to mice with glucose-induced hyperglycemia. As to the kind of experiment: Hypoglycemic effect of orally administered compounds in mice with glucose-induced hyperglycemia. Type of data set: in vivo, Kun Ming male mice. To be noted: glucose 2 g/10 ml/kg orally 15 min later, fasted mice. The protocol:
In the following biological experiments, the hypoglycemic activity of the above compounds was chiefly observed in hyperglycemic mice. Taking 3,3′,5′-trihydroxy-4′-methoxystilbene-3-O-β-D-glucoside (rhaponticin) as a positive control drug, the hypoglycemic activity of these compounds were preliminarily evaluated.
Kun Ming male mice (certification: Medical Animal No. D01-3023) with body weight of 21-33 g were used in the experiments. After fasting and feeding water for 16 hours, the compounds were administered to the mice. The candidate compounds were formulated with dimethyl sulfoxide (2.5 ml/kg), and administered to the mice intragastrically. After fifteen minutes, glucose (2 g/10 ml/kg) was administered orally. One hour later, one drop of blood was collected by cutting a segment of tail and the blood sugar level was monitored with a blood sugar monitor manufactured by Johnson Company, USA, by using a test paper containing glucose oxidase. For the mice of the control group, dimethyl sulfoxide ([…]) and glucose (2 g/10 ml/kg) were given intragastrically.

The mark [2] stands for this setting: Table 2, 400 mg/kg intragastrically, DMSO control 8.53 ± 0.76.
Setting [3] is: Table 1, 400 mg/kg intragastrically, DMSO control 9.50 ± 1.06.
The mark [4] stands for this setting: Table 3, 400 mg/kg intragastrically, DMSO control 7.80 ± 1.33.

SMILES strings stand for the structures.

By melting point is commonly meant the temperature, or range, at which the solid turns liquid.

Take `COc1ccc(/C=C(/C(=O)O)c2ccccc2)cc1C(=O)O` [Example 5, cis-2-phenyl-3-(3′-carboxy-4′-methoxy-phenyl)acrylic acid]: the “Blood sugar level one hour after administration M ± SD” value in data set [1] (setting [2]) is 8.50 ± 1.01 mmol/L. `COc1cc(/C=C(/C(=O)O)c2ccccc2)ccc1OC(C)=O` [Example 3, cis-2-phenyl-3-(3′-methoxy-4′-acetoxy-phenyl)acrylic acid]: the “Blood sugar level one hour after administration M ± SD” value in data set [1] (setting [3]) came out at 7.30 ± 0.68 mmol/L; in data set [1] (setting [2]) it was 7.85 ± 0.16 mmol/L. As to `COC(=O)/C(=C/c1ccc(OC)c(OC)c1)c1ccccc1` [Example 9, cis-2-phenyl-3-(3′,4′-dimethoxy-phenyl)-methyl acrylate], the “Blood sugar level one hour after administration M ± SD” value in data set [1] (setting [4]) worked out at 8.41 ± 0.88 mmol/L.

Consider `COc1ccc(/C=C/c2cc(O)cc(O[C@@H]3O[C@H](CO)[C@@H](O)[C@H](O)[C@H]3O)c2)cc1O` [rhaponticin, 3,3′,5′-trihydroxy-4′-methoxystilbene-3-O-β-D-glucoside, reference compound], for which the “Blood sugar level one hour after administration M ± SD” value in data set [1] (setting [3]) amounted to 9.14 ± 1.90 mmol/L; in data set [1] (Table 1, 800 mg/kg intragastrically, DMSO control 9.50 ± 1.06), 7.02 ± 1.01 mmol/L. The compound `COc1cc(C=C(C(=O)N[C@H]2CC[C@@H](C)CC2)c2ccccc2)ccc1OC(C)=O` [Example 8, cis-2-phenyl-3-(3′-methoxy-4′-acetoxy-phenyl)-N-(4-methylcyclohexyl)acrylamide] registered a melting point of 136 to 140 °C. Moreover, the “Blood sugar level one hour after administration M ± SD” value in data set [1] (Table 3, 100 mg/kg intragastrically, DMSO control 7.80 ± 1.33) came to 5.61 ± 1.67 mmol/L. Consider `COc1cc(/C=C\c2ccccc2)ccc1O` [Example 1, cis-1-phenzyl-2-(3′-methoxy-4′-hydroxy-phenyl)ethene], for which, in data set [1] (setting [3]), the “Blood sugar level one hour after administration M ± SD” value is reported as 7.62 ± 1.59 mmol/L. Take `COc1cc(C=C(C(=O)NCc2ccco2)c2ccccc2)ccc1OC(C)=O` [Example 7, cis-2-phenyl-3-(3′-methoxy-4′-acetoxy-phenyl)-N-(methylenefuran)acrylamide]: the “Blood sugar level one hour after administration M ± SD” value in data set [1] (setting [4]) was 6.95 ± 0.61 mmol/L.

For the compound `COc1cc(/C=C(/C(=O)O)c2ccccc2)ccc1O` [Example 4, cis-2-phenyl-3-(3′-methoxy-4′-hydroxy-phenyl)acrylic acid], the “Blood sugar level one hour after administration M ± SD” value in data set [1] (setting [2]) stood at 7.30 ± 2.21 mmol/L. On the same count and under the same terms, the value for `COc1cc(/C=C(/C(=O)NC2CCCCC2)c2ccccc2)ccc1OC(C)=O` [Example 6, cis-2-phenyl-3-(3-methoxy-4′-acetoxy-phenyl)-N-cyclohexyl acrylamide] was 5.46 ± 0.86 mmol/L. Regarding `COc1ccc(/C=C(/C(=O)O)c2ccccc2)cc1OC(C)=O` [Example 2, cis-2-phenyl-3-(3′-acetoxy-4′-methoxy-phenyl)acrylic acid], in data set [1] (setting [3]), the “Blood sugar level one hour after administration M ± SD” value is on record as 8.20 ± 0.99 mmol/L.
